Test results from patent EP4813989A1, “CRYSTAL, PHARMACEUTICAL COMPOSITION, PREPARATION METHOD THEREFOR, AND USE THEREOF” (TYK Medicines, Inc., priority 2023, dated 2025).

What was measured:
[1] = High-temperature test, related substances by HPLC; assay type: physicochemical; conditions: for Increase of impurity RRT0.66 content / Increase of impurity RRT1.02 content / Increase of impurity RRT1.08 content / Increase of total impurities / Impurity content RRT0.55 / Impurity content RRT0.66 / Impurity content RRT0.71 / Impurity content RRT0.94 / Impurity content RRT1.02 / Impurity content RRT1.06 / Impurity content RRT1.08 / Impurity content RRT1.15 / Total impurities: 50°C±2°C; for Impurity content RRT0.55 / Impurity content RRT0.66 / Impurity content RRT0.71 / Impurity content RRT0.94 / Impurity content RRT1.02 / Impurity content RRT1.06 / Impurity content RRT1.08 / Impurity content RRT1.15 / Total impurities: open
Protocol: An investigation method for the high-temperature test can be seen in Table 11 below.
Results of related substances in each crystal form under the high-temperature condition (50°C±2°C) can be seen in Table 15.
HPLC detection results of related substances under the high-temperature condition: Table 15

[2] = Solid form stability on standing (XRD/PLM); assay type: physicochemical
From the text: The resulting solid sample was subjected to a corresponding characterization test. An XRD pattern of the sample can be seen in FIG. 8.
A crystal form E sample was obtained by suspending and stirring the amorphous sample prepared in Example 2 in a 1,4-dioxane/n-heptane solvent system at room temperature. XRD results of the sample can be seen in FIG. 9. […] On this basis, it was inferred that the crystal form E was a metastable crystal form.
XRD results of the sample can be seen in FIG. 17.
XRD results of the sample can be seen in FIG. 20. TGA/DSC results can be seen in FIG. 21. […] An ^1H NMR spectrum of the crystal form D was obtained by a test in DMSO-d6, and no obvious solvent residue was observed. […] Based on nuclear magnetic resonance data and heating test results of the sample, it was inferred that the crystal form D was a hydrate crystal form.

Structure (SMILES): C[C@@H](Nc1ccn2ncc(C3=NOC(C)(C)N3)c2n1)c1cc(F)cc(F)c1F [crystal form E]
- Increase of impurity RRT0.66 content ([1]; 32 days): 0.05%
- Increase of impurity RRT1.02 content ([1]; 32 days): 0.19%
- Increase of impurity RRT1.08 content ([1]; 32 days): 0.23%
- Increase of total impurities ([1]; 32 days): 0.51%
- Impurity content RRT0.55 ([1]; 0 day): 0.04%
- Impurity content RRT0.66 ([1]; 0 day): 0.21%
- Impurity content RRT0.71 ([1]; 0 day): 0.14%
- Impurity content RRT0.94 ([1]; 0 day): 0.03%
- Impurity content RRT1.02 ([1]; 0 day): 0.21%
- Impurity content RRT1.06 ([1]; 0 day): 0.07%
- Impurity content RRT1.08 ([1]; 0 day): 0.17%
- Impurity content RRT1.15 ([1]; 0 day): 0.03%
- Total impurities ([1]; 0 day): 0.89%
- Impurity content RRT0.55 ([1]; 5 days): 0.03%
- Impurity content RRT0.66 ([1]; 5 days): 0.22%
- Impurity content RRT0.71 ([1]; 5 days): 0.15%
- Impurity content RRT0.94 ([1]; 5 days): 0.03%
- Impurity content RRT1.02 ([1]; 5 days): 0.27%
- Impurity content RRT1.06 ([1]; 5 days): 0.05%
- Impurity content RRT1.08 ([1]; 5 days): 0.24%
- Impurity content RRT1.15 ([1]; 5 days): 0.03%
- Total impurities ([1]; 5 days): 1.03%
- Impurity content RRT0.55 ([1]; 11 days): 0.04%
- Impurity content RRT0.66 ([1]; 11 days): 0.22%
- Impurity content RRT0.71 ([1]; 11 days): 0.13%
- Impurity content RRT0.94 ([1]; 11 days): 0.03%
- Impurity content RRT1.02 ([1]; 11 days): 0.30%
- Impurity content RRT1.06 ([1]; 11 days): 0.06%
- Impurity content RRT1.08 ([1]; 11 days): 0.29%
- Impurity content RRT1.15 ([1]; 11 days): 0.03%
- Total impurities ([1]; 11 days): 1.10%
- Impurity content RRT0.55 ([1]; 32 days): 0.04%
- Impurity content RRT0.66 ([1]; 32 days): 0.26%
- Impurity content RRT0.71 ([1]; 32 days): 0.14%
- Impurity content RRT0.94 ([1]; 32 days): 0.05%
- Impurity content RRT1.02 ([1]; 32 days): 0.40%
- Impurity content RRT1.06 ([1]; 32 days): 0.05%
- Impurity content RRT1.08 ([1]; 32 days): 0.40%
- Impurity content RRT1.15 ([1]; 32 days): 0.05%
- Total impurities ([1]; 32 days): 1.40%
- Solid form stability ([2]; air-dried, open storage at room temperature, approximately 1 day): transformed into the crystal form A

Structure (SMILES): C[C@@H](Nc1ccn2ncc(C3=NOC(C)(C)N3)c2n1)c1cc(F)cc(F)c1F [crystal form A]
- Increase of impurity RRT0.66 content ([1]; 32 days): ≤ 0.02%
- Increase of impurity RRT1.02 content ([1]; 32 days): no obvious change
- Increase of impurity RRT1.08 content ([1]; 32 days): 0.05%
- Increase of total impurities ([1]; 32 days): 0.16%
- Impurity content RRT0.55 ([1]; 0 day): 0.03%
- Impurity content RRT0.66 ([1]; 0 day): 0.18%
- Impurity content RRT0.71 ([1]; 0 day): 0.15%
- Impurity content RRT0.94 ([1]; 0 day): 0.04%
- Impurity content RRT1.02 ([1]; 0 day): 0.28%
- Impurity content RRT1.06 ([1]; 0 day): 0.07%
- Impurity content RRT1.08 ([1]; 0 day): 0.16%
- Impurity content RRT1.15 ([1]; 0 day): 0.03%
- Total impurities ([1]; 0 day): 0.95%
- Impurity content RRT0.55 ([1]; 5 days): 0.03%
- Impurity content RRT0.66 ([1]; 5 days): 0.19%
- Impurity content RRT0.71 ([1]; 5 days): 0.16%
- Impurity content RRT0.94 ([1]; 5 days): 0.04%
- Impurity content RRT1.02 ([1]; 5 days): 0.31%
- Impurity content RRT1.06 ([1]; 5 days): 0.08%
- Impurity content RRT1.08 ([1]; 5 days): 0.19%
- Impurity content RRT1.15 ([1]; 5 days): 0.03%
- Total impurities ([1]; 5 days): 1.03%
- Impurity content RRT0.55 ([1]; 11 days): 0.03%
- Impurity content RRT0.66 ([1]; 11 days): 0.19%
- Impurity content RRT0.71 ([1]; 11 days): 0.16%
- Impurity content RRT0.94 ([1]; 11 days): 0.03%
- Impurity content RRT1.02 ([1]; 11 days): 0.30%
- Impurity content RRT1.06 ([1]; 11 days): 0.08%
- Impurity content RRT1.08 ([1]; 11 days): 0.22%
- Impurity content RRT1.15 ([1]; 11 days): 0.03%
- Total impurities ([1]; 11 days): 1.04%
- Impurity content RRT0.55 ([1]; 32 days): 0.05%
- Impurity content RRT0.66 ([1]; 32 days): 0.20%
- Impurity content RRT0.71 ([1]; 32 days): 0.17%
- Impurity content RRT0.94 ([1]; 32 days): 0.05%
- Impurity content RRT1.02 ([1]; 32 days): 0.30%
- Impurity content RRT1.06 ([1]; 32 days): 0.08%
- Impurity content RRT1.08 ([1]; 32 days): 0.21%
- Impurity content RRT1.15 ([1]; 32 days): 0.05%
- Total impurities ([1]; 32 days): 1.11%
- Overall stability (conclusion) ([1]; compared with crystal form E and amorphous form, all four stress tests): the most stable crystal form

Structure (SMILES): C[C@@H](Nc1ccn2ncc(C3=NOC(C)(C)N3)c2n1)c1cc(F)cc(F)c1F [amorphous form]
- Solid form stability ([2]; ambient conditions (room temperature, >20%RH), overnight plus two days): unstable under ambient conditions
